According to PubChem BioAssay (NCI):
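Step 1: Grow cells in 96-well plates. Step 2: Expose to compound for 48 hours at 5 concentrations. Step 3: Interpolate endpoints linearly; if unreached, use highest concentration. GI50: concentration for 50% inhibition of growth. Definition used: TGI = concentration required for complete inhibition of growth.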

Test system: MDA-MB-468 breast
Assay: NCI anticancer screen, dose series, 48 h

SMILES: COc1ccc2c(c1)C(C)Cc1c(ncnc1-n1cnc3ccccc31)N2C (stereo not given)
- GI50: 0.293 µM
- TGI: 10.6 µM

SMILES: NC(N)=N/N=C(\N=Nc1ccccc1)c1ccc(Cl)cc1
- GI50: 2.12 µM
- TGI: 5.41 µM

SMILES: CC1(C)N=C(N)N=C(N)N1c1cccc(OCCOc2cccc([N+](=O)[O-])c2)c1
- GI50: 0.463 µM
- TGI: 21.6 µM

SMILES: O=C(NC1CCCCC1)c1ccc(Nc2ncnc3c2cnn3-c2ccccc2)cc1
- GI50: 21.7 µM
- TGI: > 100 µM

SMILES: Cc1noc2c1-c1ccccc1C(c1ccc(Cl)cc1)=N[C@H]2CC(N)=O
- GI50: 1.5 µM
- TGI: > 64.5 µM

SMILES: O=C(N[C@@H](Cc1coc2ccccc12)B(O)O)[C@@H]1C[C@H]2CC[C@@H]1O2
- GI50: 3.38 µM
- TGI: 36 µM

SMILES: C=CCn1c(SCC(=O)Nc2ccc(C(=O)/C=C/c3cc(OC)c(OC)c(OC)c3)cc2)nnc1-c1ccc(OC)cc1
- GI50: 0.654 µM
- TGI: 2.57 µM

SMILES: NCCCOc1cc(Cl)ccc1NC(=O)c1cc2ccccc2cc1OCCCN
- GI50: 0.543 µM
- TGI: 1.89 µM

SMILES: O=C(Nc1ccc(Cl)cc1)Nc1nccs1
- GI50: 0.398 µM
- TGI: 3.7 µM

SMILES: NCCCOc1cc2ccccc2cc1C(=O)NCCCOc1cc2ccccc2cc1C(=O)Nc1ccc(Cl)cc1O
- GI50: 0.238 µM
- TGI: 0.821 µM

SMILES: COc1ccc(-c2ccc(NNC(=O)c3ccc(F)cc3)nn2)cc1OC
- GI50: 64.3 µM
- TGI: > 100 µM

SMILES: Cn1cc(S(=O)(=O)N2CCC3=Cc4c(cnn4-c4ccc(F)cc4)C[C@]3(C(=O)c3cc(C(F)(F)F)ccn3)C2)cn1
- GI50: 68.8 µM
- TGI: > 100 µM

SMILES: O=C(CCN1CCOCC1)Nc1cccc(-n2cc(-c3ccncc3)c(-c3ccc(Cl)c(O)c3)n2)c1
- GI50: 1.25 µM
- TGI: 3.95 µM

SMILES: COC(=O)[C@]12CC[C@@H](C)[C@H](C)[C@@H]1C1=CC[C@@H]3[C@@]4(C)C(C=O)=C[C@@](C)(COC(=O)c5ccco5)[C@@H]4[C@H](O)C[C@@]3(C)[C@]1(C)CC2
- GI50: 1.69 µM
- TGI: 5.66 µM

SMILES: c1ccc2c(c1)c1ccccc1c1ccccc21
- GI50: > 100 µM
- TGI: > 100 µM

SMILES: CN(C)CCNc1nc2ccccc2c2c(=O)c3cc(F)ccc3sc12
- GI50: 1.65 µM
- TGI: 3.22 µM

SMILES: O=C1/C(=C/N2N=C(c3ccc4ccccc4c3)CC2c2ccccc2O)SC(=S)N1c1cccnc1 (stereo not given)
- GI50: 1.06 µM
- TGI: 5.33 µM

SMILES: Cc1sc2c(c1C)C(c1ccc(Cl)cc1)=N[C@@H](CC(=O)Nc1ccc(OCCOCCOCCOCCNc3cccc4c3C(=O)N(C3CCC(=O)NC3=O)C4=O)cc1)c1nnc(C)n1-2 (stereo not given in full)
- GI50: < 0.0201 µM
- TGI: > 100 µM

SMILES: NC(=O)CNc1ccc([As]=[As]c2ccc(NCC(N)=O)cc2)cc1 (stereo not given)
- GI50: 1.13 µM
- TGI: 4.09 µM

SMILES: COc1ccc(-c2cc(Nc3ccnc(N4CCOCC4)n3)on2)cc1
- GI50: 0.375 µM
- TGI: 2.49 µM

SMILES: Nc1c(C(=O)Nc2ccccc2Cl)sc2nc3c(cc12)C(=O)CCC3
- GI50: 0.324 µM
- TGI: 5.42 µM

SMILES: CCOC(=O)C1=C(N)Oc2c(sc3c(C)cccc23)C1c1ccc(F)cc1 (stereo not given)
- GI50: 1.16 µM
- TGI: 8.8 µM

SMILES: CNC(C)[C@H]1CCC2C3CC=C4C(=O)[C@@H](NC(=O)C=C(C)C)CC[C@]4(C)C3CC[C@@]21C (stereo not given in full)
- GI50: 0.939 µM
- TGI: 2.91 µM

SMILES: Oc1ccc(Oc2cnc3ccccc3n2)cc1
- GI50: 49.4 µM
- TGI: > 100 µM

SMILES: Oc1ccc(N=Nc2nccs2)c(O)c1
- GI50: 4.76 µM
- TGI: > 100 µM

SMILES: COc1ccc(-c2noc(N)c2-c2cc(OC)c3c(c2)OCO3)cc1
- GI50: 0.966 µM
- TGI: 7.47 µM

SMILES: O=C(NNc1cnccn1)c1nc2cc(F)ccc2n2cccc12
- GI50: 0.419 µM
- TGI: 3.03 µM

SMILES: Cc1cc(NCCCCNc2ccnc3cc(Cl)ccc23)nc(Nc2ccc(C(=O)N3CCCCC3)cc2)n1
- GI50: 1.37 µM
- TGI: 3.09 µM

SMILES: Cn1cc(-c2csc(-c3cn(C)c4ccc(F)cc34)n2)c2cnccc21
- GI50: 1.86 µM
- TGI: 3.53 µM

SMILES: O=C(N/N=C/c1ccc(O)cc1O)c1cccnc1
- GI50: 2.23 µM
- TGI: 11.8 µM
